Here are results for 3 compounds from US20240246942A1, “KINASE INHIBITORS FOR THE TREATMENT OF NEURODEGENERATIVE DISEASES” (priority 2020, published 2024).

Series [1] has as its target T1, panel of 374 wild-type kinases (Homo sapiens, UniProt Q8WXR4).
T1 construct: purchased Reaction Biology Corporation
T1 sequence (Q8WXR4 1-1341): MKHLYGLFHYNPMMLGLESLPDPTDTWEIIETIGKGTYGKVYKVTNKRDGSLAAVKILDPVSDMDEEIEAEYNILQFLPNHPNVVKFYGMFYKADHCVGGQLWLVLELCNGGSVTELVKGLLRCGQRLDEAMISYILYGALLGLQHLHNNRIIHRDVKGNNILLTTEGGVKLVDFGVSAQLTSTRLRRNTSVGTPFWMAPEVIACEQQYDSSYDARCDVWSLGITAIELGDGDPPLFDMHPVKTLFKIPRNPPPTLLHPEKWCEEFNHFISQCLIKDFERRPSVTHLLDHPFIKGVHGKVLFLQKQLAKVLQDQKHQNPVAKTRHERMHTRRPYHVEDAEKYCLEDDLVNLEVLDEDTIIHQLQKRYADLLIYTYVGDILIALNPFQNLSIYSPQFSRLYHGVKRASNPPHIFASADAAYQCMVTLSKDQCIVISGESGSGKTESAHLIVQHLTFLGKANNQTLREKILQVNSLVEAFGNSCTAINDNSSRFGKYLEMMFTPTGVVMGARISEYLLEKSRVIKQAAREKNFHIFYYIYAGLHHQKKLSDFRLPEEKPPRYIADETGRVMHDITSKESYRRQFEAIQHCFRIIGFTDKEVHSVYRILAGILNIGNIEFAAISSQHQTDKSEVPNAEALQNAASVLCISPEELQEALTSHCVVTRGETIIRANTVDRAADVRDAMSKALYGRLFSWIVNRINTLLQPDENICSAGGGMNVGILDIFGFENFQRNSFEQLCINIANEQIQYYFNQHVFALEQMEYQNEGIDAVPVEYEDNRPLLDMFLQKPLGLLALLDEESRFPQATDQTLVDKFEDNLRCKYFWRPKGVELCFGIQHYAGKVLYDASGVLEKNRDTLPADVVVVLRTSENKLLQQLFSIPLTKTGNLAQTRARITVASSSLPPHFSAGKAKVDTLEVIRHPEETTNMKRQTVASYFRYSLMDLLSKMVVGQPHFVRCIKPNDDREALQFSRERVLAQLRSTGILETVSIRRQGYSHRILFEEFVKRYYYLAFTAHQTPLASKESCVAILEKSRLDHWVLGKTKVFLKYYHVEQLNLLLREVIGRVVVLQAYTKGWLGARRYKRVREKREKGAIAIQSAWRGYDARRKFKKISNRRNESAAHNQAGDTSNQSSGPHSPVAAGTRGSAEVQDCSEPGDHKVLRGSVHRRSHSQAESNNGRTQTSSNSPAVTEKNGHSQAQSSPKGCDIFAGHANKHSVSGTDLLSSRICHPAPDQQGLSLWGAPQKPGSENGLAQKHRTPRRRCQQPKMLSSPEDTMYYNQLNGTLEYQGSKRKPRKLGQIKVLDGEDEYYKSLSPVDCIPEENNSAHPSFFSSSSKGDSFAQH
The series is described as follows: biochemical. Conditions: read-out: % Enzyme Activity (relative to DMSO controls), MYO3b.

Series [2] concerns the target T2, panel of 374 wild-type kinases (Homo sapiens, UniProt P43403).
T2 construct: purchased Reaction Biology Corporation
T2 sequence (P43403 1-619): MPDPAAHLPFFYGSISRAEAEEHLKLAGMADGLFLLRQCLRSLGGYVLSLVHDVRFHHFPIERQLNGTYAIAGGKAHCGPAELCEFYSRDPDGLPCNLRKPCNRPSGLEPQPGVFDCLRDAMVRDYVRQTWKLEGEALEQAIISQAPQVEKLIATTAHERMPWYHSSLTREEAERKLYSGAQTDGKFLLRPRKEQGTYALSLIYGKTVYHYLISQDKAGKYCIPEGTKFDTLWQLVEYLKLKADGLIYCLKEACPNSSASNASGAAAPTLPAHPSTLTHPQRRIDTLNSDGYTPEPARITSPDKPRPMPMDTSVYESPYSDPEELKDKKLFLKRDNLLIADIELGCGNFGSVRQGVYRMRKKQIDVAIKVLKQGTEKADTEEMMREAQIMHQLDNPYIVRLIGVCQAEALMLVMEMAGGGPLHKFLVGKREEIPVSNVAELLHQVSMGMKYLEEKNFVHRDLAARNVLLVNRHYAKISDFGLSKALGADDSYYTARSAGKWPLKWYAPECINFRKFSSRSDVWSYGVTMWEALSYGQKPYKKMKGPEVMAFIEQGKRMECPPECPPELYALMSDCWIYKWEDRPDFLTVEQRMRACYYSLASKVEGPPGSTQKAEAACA
Put plainly: biochemical. The conditions noted are these: read-out: % Enzyme Activity (relative to DMSO controls), kinase ZAP70.

Series [3] addresses T3, panel of 374 wild-type kinases (Homo sapiens, UniProt P31751).
T3 construct: purchased Reaction Biology Corporation
The series is described as follows: biochemical. The conditions noted are these: read-out: % Enzyme Activity (relative to DMSO controls), AKT2.

In series [4] the target is T4, panel of 374 wild-type kinases (Homo sapiens, UniProt P34947).
T4 construct: purchased Reaction Biology Corporation
Put plainly: biochemical. The conditions noted are these: read-out: % Enzyme Activity (relative to DMSO controls), GRK5.

Series [5] concerns the target T5, panel of 374 wild-type kinases (Homo sapiens, UniProt Q13233).
T5 construct: purchased Reaction Biology Corporation
Put plainly: biochemical. The conditions noted are these: read-out: % Enzyme Activity (relative to DMSO controls), MEKK1.

For a further series, the target named is CYP2C9 (Homo sapiens, UniProt P11712). The series is described as follows: P450 cocktail inhibition assay, CYP2C9. Format: in vitro ADME. The conditions noted are these: at 10 μM. On the procedure:
(§1) P450s inhibition for four major isoforms are evaluated using a cocktail inhibition assay where the metabolism of specific marker substrate (CYP1A2 phenaceten […] to acetaminophen); CYP2C9, tolbutamide hydroxylation to hydrocytolbutamide; CYP2D6, bufuralol hydroxylation to […]; and CYP3A4, midazolam hydroxylation to 1′-Hydroxymidazolam) in the presence or absence of 10 TM probe compound is evaluated. The concentration of each marker substrate is approximately its Km. […] Specific inhibitors for each isoform are included in each run to validate the system.

A further series addresses CYP2D6 (Homo sapiens, UniProt P10635). The series is described as follows: P450 cocktail inhibition assay, CYP2D6. It counts as in vitro ADME. The conditions noted are these: at 10 μM. The procedure:
as §1

A further series concerns the target CYP3A4 (Homo sapiens, UniProt P08684). Put plainly: P450 cocktail inhibition assay, CYP3A4. It counts as in vitro ADME. Conditions: at 10 μM. On the procedure: as §1
The test system of the next series is SHSY5Y cells. The series is described as follows: MTT cytotoxicity assay.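 Note: compounds tested at 10 µM final concentration.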 It counts as cell-based. Set-up: dose or concentration left out as unconfirmed. Conditions: 48 hrs, average of ≥2 experiments. The procedure:
A day before the assay, cells were plated at 50,000/well in 96 well plates in the culture medium. […] After the incubation, cells were subjected to MTT assay using Vybrant MTT Cell Proliferation kit as directed by the vendor (Life Technologies).

Series [6] can be described thus: Microsomal stability, mouse. Format: in vitro ADME. The conditions noted are these: mouse microsomes.

T3 sequence (P31751 whole entry): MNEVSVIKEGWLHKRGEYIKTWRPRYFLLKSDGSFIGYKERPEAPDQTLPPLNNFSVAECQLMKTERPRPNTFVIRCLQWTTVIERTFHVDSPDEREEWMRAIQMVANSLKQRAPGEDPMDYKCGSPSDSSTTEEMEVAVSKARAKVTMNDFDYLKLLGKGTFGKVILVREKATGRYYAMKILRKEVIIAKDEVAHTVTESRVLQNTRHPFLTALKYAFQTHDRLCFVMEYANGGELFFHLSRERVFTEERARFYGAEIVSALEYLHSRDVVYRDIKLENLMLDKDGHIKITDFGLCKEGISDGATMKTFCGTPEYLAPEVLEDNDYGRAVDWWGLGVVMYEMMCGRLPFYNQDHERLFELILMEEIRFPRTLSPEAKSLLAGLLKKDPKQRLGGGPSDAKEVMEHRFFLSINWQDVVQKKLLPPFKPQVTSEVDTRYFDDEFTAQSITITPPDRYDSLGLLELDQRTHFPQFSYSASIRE
Sequence of CYP2D6 (P10635 whole entry): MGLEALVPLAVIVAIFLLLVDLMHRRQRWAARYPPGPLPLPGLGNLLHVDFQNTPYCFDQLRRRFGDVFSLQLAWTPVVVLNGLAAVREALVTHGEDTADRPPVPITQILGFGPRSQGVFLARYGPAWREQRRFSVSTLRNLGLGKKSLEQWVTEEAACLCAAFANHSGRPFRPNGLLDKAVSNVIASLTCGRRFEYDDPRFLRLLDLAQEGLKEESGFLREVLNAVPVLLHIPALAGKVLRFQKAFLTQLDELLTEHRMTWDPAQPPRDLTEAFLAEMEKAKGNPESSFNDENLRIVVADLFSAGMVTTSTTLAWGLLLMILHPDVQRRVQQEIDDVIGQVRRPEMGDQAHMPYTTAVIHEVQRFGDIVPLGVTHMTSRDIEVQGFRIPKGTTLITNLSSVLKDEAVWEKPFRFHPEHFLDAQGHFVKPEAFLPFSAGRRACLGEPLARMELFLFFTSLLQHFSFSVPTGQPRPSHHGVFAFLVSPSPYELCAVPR
Sequence of CYP2C9 (P11712 whole entry, canonical isoform): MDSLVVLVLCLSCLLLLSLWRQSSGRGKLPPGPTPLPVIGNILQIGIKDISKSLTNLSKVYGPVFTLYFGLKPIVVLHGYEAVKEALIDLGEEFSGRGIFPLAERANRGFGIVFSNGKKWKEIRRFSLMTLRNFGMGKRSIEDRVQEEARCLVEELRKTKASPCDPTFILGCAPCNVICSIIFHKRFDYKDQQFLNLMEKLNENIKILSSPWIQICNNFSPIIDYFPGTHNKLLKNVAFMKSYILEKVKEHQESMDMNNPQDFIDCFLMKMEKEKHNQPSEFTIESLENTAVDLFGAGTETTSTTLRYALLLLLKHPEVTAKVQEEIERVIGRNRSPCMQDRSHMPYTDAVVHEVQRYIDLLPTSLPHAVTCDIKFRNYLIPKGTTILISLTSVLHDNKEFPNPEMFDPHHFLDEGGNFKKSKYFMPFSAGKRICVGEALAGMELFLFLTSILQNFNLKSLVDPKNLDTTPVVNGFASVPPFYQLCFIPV
Sequence of CYP3A4 (P08684 whole entry): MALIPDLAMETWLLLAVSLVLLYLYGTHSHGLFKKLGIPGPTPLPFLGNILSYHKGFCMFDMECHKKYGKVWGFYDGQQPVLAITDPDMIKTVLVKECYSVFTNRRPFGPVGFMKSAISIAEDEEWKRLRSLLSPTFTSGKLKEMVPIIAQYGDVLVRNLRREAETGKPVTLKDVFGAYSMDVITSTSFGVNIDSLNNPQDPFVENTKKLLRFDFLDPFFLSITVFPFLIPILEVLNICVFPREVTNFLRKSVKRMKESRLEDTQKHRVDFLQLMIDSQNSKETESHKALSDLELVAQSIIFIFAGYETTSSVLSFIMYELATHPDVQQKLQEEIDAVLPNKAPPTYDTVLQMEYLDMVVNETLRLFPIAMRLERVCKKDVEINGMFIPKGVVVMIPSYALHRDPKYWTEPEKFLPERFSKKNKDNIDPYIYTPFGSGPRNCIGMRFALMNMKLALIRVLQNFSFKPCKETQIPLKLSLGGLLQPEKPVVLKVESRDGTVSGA
T4 sequence (P34947 whole entry): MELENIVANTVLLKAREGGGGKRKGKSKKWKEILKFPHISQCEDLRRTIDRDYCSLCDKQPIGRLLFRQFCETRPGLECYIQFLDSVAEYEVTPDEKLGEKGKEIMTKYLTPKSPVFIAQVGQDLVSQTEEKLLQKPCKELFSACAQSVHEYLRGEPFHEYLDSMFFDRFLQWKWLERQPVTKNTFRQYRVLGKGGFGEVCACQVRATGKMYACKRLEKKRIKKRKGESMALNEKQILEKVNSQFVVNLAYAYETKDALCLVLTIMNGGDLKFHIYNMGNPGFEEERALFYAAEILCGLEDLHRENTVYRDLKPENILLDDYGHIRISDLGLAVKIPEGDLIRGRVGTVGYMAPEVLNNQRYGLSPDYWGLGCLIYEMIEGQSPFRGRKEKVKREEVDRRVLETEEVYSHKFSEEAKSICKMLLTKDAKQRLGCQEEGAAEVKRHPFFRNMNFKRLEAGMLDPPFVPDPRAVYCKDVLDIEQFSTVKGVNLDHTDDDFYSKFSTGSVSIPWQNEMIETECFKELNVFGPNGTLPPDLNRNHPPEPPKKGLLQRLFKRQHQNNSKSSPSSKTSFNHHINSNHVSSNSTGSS
T5 sequence (Q13233 whole entry): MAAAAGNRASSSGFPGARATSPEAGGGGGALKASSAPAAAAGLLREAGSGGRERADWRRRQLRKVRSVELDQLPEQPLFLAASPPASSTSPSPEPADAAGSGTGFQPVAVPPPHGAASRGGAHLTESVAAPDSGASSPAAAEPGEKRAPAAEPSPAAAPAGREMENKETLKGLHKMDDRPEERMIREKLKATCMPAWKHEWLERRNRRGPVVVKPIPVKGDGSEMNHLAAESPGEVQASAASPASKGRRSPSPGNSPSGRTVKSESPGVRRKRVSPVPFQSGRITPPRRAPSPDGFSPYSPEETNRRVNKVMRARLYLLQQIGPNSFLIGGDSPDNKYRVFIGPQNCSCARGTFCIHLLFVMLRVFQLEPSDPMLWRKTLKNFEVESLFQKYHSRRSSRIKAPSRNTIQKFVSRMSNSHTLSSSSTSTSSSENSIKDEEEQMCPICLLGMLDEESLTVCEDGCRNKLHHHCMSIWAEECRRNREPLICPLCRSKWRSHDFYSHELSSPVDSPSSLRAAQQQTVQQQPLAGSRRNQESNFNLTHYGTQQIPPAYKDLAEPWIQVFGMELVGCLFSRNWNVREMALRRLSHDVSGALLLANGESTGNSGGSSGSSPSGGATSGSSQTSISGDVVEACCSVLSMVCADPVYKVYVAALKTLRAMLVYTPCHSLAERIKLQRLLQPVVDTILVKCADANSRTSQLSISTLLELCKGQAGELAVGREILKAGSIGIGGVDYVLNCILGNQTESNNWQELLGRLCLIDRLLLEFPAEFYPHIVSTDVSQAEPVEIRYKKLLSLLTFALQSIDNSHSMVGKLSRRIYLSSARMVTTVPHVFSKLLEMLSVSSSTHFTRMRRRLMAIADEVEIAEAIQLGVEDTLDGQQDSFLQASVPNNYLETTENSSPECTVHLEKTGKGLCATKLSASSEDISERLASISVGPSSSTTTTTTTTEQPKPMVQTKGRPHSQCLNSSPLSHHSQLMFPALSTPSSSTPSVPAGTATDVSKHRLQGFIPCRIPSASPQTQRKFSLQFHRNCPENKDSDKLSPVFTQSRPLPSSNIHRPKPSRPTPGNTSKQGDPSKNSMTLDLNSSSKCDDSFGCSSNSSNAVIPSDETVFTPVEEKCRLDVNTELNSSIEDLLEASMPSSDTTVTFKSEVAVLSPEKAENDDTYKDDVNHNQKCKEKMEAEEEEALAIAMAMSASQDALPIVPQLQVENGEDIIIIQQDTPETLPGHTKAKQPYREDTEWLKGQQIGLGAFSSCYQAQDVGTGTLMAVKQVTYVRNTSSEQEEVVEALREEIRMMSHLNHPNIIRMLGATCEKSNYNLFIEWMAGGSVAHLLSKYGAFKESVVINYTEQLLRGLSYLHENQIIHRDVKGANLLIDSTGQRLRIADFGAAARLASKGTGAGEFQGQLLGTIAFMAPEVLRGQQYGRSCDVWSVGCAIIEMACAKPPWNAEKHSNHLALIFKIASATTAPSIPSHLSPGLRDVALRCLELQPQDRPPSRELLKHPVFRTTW

As to `Cc1sc(C(=O)NC2COC2)cc1-n1cc(NC(=O)Nc2c(F)cccc2Cl)cn1` [Compound 27, 4-(4-(3-(2-chloro-6-fluorophenyl)ureido)-1H-pyrazol-1-yl)-5-methyl-N-(oxetan-3-yl)thiophene-2-carboxamide], the remaining activity at 10 µM in [1] (10 uM) worked out at 78.7%; in [2] (10 uM), 103%; in [3] (10 uM) it was 89.8%; in series [4] (10 uM), 113%; in series [5] (10 uM), 94.5%. The “CYP-450 % inh. 2C9” value on CYP2C9 was 33%. The “CYP-450 % inh. 2D6” value at CYP2D6 is given as 1%. For the same compound, at CYP3A4, the “CYP-450 % inh. 3A4” value is reported as 16%. Besides, the MTT cell viability in the series on SHSY5Y cells was 111%. The “Mic. stability t1/2 Mouse” value in series [6] amounted to 57 min.

For the compound `O=C(Nc1cnn(-c2csc(C(=O)NC3COC3)c2)c1)Nc1c(F)cccc1Cl` [Compound 25, 4-(4-(3-(2-chloro-6-fluorophenyl)ureido)-1H-pyrazol-1-yl)-N-(oxetan-3-yl)thiophene-2-carboxamide], the remaining activity at 5 µM in series [1] was 101%; in [2], 104%; in [3] it was 104%; in series [4] it was 102%; in series [5], 98.7%. For the same compound, the “CYP-450 % inh. 2C9” value at CYP2C9 amounted to 48%. For the same compound, the “CYP-450 % inh. 2D6” value at CYP2D6 is 31%. The “CYP-450 % inh. 3A4” value on CYP3A4 is recorded as 24%. In addition, the MTT cell viability in the series with SHSY5Y cells came out at 102%. Also, in series [6], the “Mic. stability t1/2 Mouse” value is 72 min.

`O=C(Nc1cnn(-c2csc(C(=O)NC3COC3)c2)c1)Nc1ccccc1Cl` [Compound 17, 4-(4-(3-(2-chlorophenyl)ureido)-1H-pyrazol-1-yl)-N-(oxetan-3-yl)thiophene-2-carboxamide]: the remaining activity at 5 µM in series [1] amounted to 128%; in series [2], 102%; in series [3], 89.5%; in series [4] it was 98%; in series [5], 103%. The “CYP-450 % inh. 2C9” value at CYP2C9 was determined as 8%. Further, the “CYP-450 % inh. 2D6” value at CYP2D6 is on record as −15%. At CYP3A4, the “CYP-450 % inh. 3A4” value is −34%. Also, the MTT cell viability in the series with SHSY5Y cells stood at 104%. In series [6], the “Mic. stability t1/2 Mouse” value turned out to be 24 min.
